In ChEMBL document CHEMBL5303766, “Data for DCP probe FHT-2344” (2022):

Assays:
Details in all cases: for ΔTm: Compound concentration 10.0 uM
[1] = molecular target: T1, Ferrochelatase, mitochondrial (Homo sapiens) (UniProt P22830); experiment: FECH SGC Tm panel (DSF)
T1 sequence (whole entry): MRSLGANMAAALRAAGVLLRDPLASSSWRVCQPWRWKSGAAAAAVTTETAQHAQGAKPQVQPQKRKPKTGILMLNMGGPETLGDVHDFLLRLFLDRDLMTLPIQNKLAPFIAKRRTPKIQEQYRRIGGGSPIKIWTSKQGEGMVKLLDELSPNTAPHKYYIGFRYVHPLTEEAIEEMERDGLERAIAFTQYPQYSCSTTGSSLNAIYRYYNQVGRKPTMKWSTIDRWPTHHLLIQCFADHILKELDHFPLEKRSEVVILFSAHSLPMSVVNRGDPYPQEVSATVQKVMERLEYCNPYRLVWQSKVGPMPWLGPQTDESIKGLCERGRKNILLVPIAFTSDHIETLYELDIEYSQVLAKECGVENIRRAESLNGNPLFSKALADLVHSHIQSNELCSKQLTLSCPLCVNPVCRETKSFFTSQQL

[2] = molecular target: T2, Serine/threonine-protein kinase 4 (Homo sapiens) (UniProt Q13043); experiment: STK4 SGC Tm panel (DSF)
T2 sequence (whole entry): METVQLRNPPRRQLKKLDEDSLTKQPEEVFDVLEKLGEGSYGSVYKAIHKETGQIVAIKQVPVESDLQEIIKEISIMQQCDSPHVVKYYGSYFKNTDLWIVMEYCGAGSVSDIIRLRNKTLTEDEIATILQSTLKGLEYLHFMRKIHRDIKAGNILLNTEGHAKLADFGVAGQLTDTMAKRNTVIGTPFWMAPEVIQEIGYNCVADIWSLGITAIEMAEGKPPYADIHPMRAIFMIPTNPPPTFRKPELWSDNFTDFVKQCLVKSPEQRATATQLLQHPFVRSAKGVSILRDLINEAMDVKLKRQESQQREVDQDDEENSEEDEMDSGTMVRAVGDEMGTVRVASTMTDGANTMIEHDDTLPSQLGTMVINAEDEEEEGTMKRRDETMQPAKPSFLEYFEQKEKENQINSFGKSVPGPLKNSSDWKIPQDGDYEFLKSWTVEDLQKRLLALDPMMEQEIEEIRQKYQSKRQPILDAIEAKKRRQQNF

[3] = molecular target: Serine/threonine-protein kinase Nek7 (Homo sapiens) (UniProt Q8TDX7); experiment: NEK7 SGC Tm panel (DSF)
Sequence of Serine/threonine-protein kinase Nek7 (Homo sapiens) (Q8TDX7 whole entry, looked up): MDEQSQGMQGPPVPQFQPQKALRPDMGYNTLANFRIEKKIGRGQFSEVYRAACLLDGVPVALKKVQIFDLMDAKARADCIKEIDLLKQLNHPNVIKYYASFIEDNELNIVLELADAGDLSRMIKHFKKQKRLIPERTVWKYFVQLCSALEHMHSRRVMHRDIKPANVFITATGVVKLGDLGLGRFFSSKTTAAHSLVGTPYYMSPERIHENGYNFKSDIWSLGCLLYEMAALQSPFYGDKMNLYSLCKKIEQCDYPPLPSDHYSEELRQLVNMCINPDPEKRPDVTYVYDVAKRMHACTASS

[4] = molecular target: T3, MAP/microtubule affinity-regulating kinase 4 (Homo sapiens) (UniProt Q96L34); experiment: MARK4 SGC Tm panel (DSF)
T3 sequence (whole entry): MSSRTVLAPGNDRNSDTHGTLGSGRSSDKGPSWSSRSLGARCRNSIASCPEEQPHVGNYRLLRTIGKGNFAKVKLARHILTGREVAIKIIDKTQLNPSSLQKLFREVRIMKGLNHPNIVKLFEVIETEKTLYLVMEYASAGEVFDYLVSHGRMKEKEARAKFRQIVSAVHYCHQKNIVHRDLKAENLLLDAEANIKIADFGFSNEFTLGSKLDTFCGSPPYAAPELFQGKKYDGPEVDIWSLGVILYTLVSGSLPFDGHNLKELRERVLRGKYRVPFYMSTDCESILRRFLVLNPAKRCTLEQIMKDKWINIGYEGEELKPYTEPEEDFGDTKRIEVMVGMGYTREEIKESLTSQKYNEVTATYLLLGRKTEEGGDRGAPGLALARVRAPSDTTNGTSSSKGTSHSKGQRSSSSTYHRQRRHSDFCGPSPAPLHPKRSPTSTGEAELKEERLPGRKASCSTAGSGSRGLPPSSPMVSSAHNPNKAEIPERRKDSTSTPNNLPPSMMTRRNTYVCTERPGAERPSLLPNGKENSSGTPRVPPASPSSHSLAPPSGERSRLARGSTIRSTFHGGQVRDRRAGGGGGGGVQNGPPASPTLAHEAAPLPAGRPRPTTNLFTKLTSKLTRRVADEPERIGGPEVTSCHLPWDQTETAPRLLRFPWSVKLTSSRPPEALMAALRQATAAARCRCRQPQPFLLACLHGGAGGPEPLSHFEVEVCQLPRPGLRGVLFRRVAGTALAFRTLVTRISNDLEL

Structure (SMILES) | delta Tm Staurosporine positive control [1] | ΔTm [1] | delta Tm Staurosporine positive control [2] | ΔTm [2] | delta Tm Staurosporine positive control [3] | ΔTm [3] | delta Tm Staurosporine positive control [4] | ΔTm [4]
C[C@H](NC(=O)c1cn(C2(C#N)CC2)cn1)C(=O)Nc1nc(-c2cccc(-c3ccn(C)n3)c2)cs1 | 1.69 | -0.558 | 14.2 | 0 | 1.29 | 0.0219 | 15.8 | 0.462
COC[C@H](NC(=O)c1ccn(S(C)(=O)=O)c1)C(=O)Nc1nc(-c2cccc(-c3ccn(C)n3)c2)cs1 | 1.69 | 0.0581 | 14.2 | 0 | 1.29 | 0.0604 | 15.8 | 0.492
